From ChEMBL document CHEMBL1201862, “PubChem BioAssay data set” (2004)
Several values for one entry are separate records, joined by “and”; a condition that tells them apart may be missing. Identical values can stand only once. Activity calls are given as the source filed them.

Columns and labels:
[1] = test system: INS1; experiment: INS-1E survival protection against cytokine death – cell-based, luminescence, retest, dose response (AID 449756); type: functional; details: Rattus norvegicus;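 note: cell death triggered by IL-1 beta plus TNF-alpha plus IFN-gamma mixture; protective hits raise ATP signal compared with cytokine alone wells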
[2] = molecular target: Photoreceptor-specific nuclear receptor (Homo sapiens, UniProt Q9Y5X4); type: functional, cell-based;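 note: CHO-S cells with Gal4-NCOR and VP16-NR2E3 two-hybrid luciferase reporter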
Sequence of Photoreceptor-specific nuclear receptor (Q9Y5X4 whole entry, the tested form may be a part): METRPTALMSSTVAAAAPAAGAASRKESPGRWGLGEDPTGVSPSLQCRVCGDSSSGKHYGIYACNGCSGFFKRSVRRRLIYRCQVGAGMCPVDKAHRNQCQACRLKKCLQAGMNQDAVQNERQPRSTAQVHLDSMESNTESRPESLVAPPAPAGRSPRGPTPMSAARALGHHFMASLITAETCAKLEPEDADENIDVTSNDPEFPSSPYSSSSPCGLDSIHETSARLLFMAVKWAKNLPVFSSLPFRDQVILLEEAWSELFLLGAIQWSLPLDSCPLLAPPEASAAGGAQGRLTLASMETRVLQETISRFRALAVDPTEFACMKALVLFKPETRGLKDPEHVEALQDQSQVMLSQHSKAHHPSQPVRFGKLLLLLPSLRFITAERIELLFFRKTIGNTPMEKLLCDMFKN

[3] = NIH3T3 cell viability loss – ATP luminescence, mouse fibroblasts, counter-screen, dose response (AID 2010); type: functional, cell-based;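 note: cells exposed to compound for about 90 hours before reading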
[4] = Trypanosoma cruzi growth suppression in host cells – NIH3T3 host cells, beta-gal luminescence, confirmation (AID 2044); type: functional, cell-based;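 note: intracellular parasites grown in NIH/3T3 mouse fibroblasts as host cells; luminescent beta-galactosidase reporter signal from transgenic T. cruzi replicating inside host cells; inhibitors lower the luminescence signal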
[5] = molecular target: Serine/threonine-protein phosphatase PP1-alpha catalytic subunit (Homo sapiens, UniProt P62136); experiment: inhibition of protein phosphatase 1 activity – biochemical, fluorescence, dose response (AID 2403);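 note: phosphatase turnover of OMFP into fluorescent 3-O-methylfluorescein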
Sequence of Serine/threonine-protein phosphatase PP1-alpha catalytic subunit (P62136 whole entry): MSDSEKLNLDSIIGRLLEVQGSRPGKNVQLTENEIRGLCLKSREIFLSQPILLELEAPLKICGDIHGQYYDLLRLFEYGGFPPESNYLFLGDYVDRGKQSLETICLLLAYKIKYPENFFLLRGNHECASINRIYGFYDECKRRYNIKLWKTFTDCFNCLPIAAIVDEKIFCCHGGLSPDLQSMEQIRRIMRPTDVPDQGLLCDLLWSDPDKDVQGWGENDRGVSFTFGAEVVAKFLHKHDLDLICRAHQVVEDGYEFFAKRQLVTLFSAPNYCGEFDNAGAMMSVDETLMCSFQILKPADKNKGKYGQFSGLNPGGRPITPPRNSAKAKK

[6] = molecular target: Nonstructural protein 1 (Influenza A virus, UniProt Q194T2); type: functional, Influenza A virus (A/California/07/2009(H1N1))
[7] = molecular target: Serine/threonine-protein phosphatase (Homo sapiens, UniProt Q9BPW0); experiment: Counterscreen for inhibitors of PP1: fluorescence-based biochemical high throughput dose response assay to identify inhibitors of Protein Phosphatase 5 (PP5). [Related pubchem assays: 2034 (Summary (PP5 inhibitors)), 1987 (PP5 inhibitors in singlate), 2235 (PP1 inhibitors in singlate)]
[8] = molecular target: Kappa-type opioid receptor (Homo sapiens, UniProt P41145); experiment: SAR analysis of small molecule agonists of the kappa opioid receptor via a luminescent beta-arrestin assay - Set 2. [Related pubchem assays (depositor defined):AID1777, AID1785, AID1786, AID1966, AID2133, AID2136, AID2284, AID449737]; type: functional
[9] = protection from phage-mediated lysis, alamar blue read-out – E. coli UTI89, K1F phage, bacterial capsule biogenesis inhibitors (AID 488966); type: functional
[10] = test system: Vero; experiment: host cell viability loss, Vero E6 – synthesized analogs, cytotoxicity control for West Nile virus antiviral project, SAR follow-up (AID 2244); type: functional; details: Chlorocebus sabaeus
[11] = luciferase reporter signal suppression in cells – H4 neuroglioma cells, luminescence, dose response (AID 1990); type: functional, cell-based
[12] = alpha-synuclein stem-loop luciferase translation blockers – H4 neuroglioma cells, luminescence, confirmation (AID 1988); type: functional, cell-based
[13] = Luminescence Cell-Based Dose Retest to Confirm Inhibitors of Cancer Stem Cells. [Related pubchem assays (depositor defined):AID2717, AID2721]; type: functional; details: Homo sapiens
[14] = Luminescence Cell-Based Dose Response HTS to Identify Inhibitors of 5'UTR Stem-Loop Driven Prion Protein mRNA Translation in H4 Neuroglioblastoma Cells. [Related pubchem assays: 1827 (Project Summary), 1813 (Primary HTS)]; type: functional
[15] = molecular target: Female germline-specific tumor suppressor gld-1 (Caenorhabditis elegans, UniProt Q17339); experiment: blockers of GLD-1/TGE RNA complex formation – biochemical, fluorescence polarization, C. elegans, dose response (AID 2802);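 note: fluorescence polarization of labeled TGE RNA bound by purified gld-1 protein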
[16] = molecular target: T1, Zinc finger protein mex-5 (Caenorhabditis elegans, UniProt Q9XUB2); experiment: potency of MEX-5 RNA-binding blockers – biochemical, C. elegans, fluorescence polarization, dose response (AID 1960)
T1 sequence (Q9XUB2 whole entry): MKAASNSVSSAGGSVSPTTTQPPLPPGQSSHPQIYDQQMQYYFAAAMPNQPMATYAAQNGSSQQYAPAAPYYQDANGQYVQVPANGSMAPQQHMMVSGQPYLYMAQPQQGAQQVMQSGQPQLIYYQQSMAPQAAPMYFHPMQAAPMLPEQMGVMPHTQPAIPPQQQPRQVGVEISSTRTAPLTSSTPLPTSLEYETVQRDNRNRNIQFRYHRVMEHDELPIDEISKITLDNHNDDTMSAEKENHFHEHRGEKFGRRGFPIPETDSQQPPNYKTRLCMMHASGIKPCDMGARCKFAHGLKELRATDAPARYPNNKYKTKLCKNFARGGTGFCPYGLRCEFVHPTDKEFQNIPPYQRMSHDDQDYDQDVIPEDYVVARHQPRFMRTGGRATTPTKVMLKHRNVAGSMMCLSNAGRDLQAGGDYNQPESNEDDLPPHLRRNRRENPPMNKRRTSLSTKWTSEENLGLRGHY

[17] = molecular target: T2, RNA-binding protein pos-1 (Caenorhabditis elegans, UniProt G5EF15); experiment: disruptors of C. elegans POS-1 RNA interaction – biochemical, fluorescence polarization, dose response (AID 1964);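 note: purified POS-1 fused to maltose binding protein made in E. coli; potency of compounds blocking POS-1 binding to fluorescent RNA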
T2 sequence (G5EF15 whole entry): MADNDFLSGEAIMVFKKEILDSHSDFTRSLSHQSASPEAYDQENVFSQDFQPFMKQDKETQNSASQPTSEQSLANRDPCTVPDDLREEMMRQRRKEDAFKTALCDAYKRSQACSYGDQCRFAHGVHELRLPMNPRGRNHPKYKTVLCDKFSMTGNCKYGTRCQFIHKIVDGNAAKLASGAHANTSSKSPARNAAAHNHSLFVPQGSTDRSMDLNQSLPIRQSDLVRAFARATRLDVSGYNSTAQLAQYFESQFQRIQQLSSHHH

[18] = molecular target: Protein Rev (Human immunodeficiency virus type 1 group M subtype B (isolate HXB2)(HIV-1), UniProt P04618); experiment: blockers of HIV Rev/RRE RNA complex – biochemical, fluorescence polarization, HIV-1, dose response (AID 434976); design: species or system Human immunodeficiency virus 1
Sequence of Protein Rev (P04618 whole entry): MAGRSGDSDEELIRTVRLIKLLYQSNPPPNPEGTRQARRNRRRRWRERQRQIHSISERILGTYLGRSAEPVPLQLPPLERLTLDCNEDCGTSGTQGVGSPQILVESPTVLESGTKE

[19] = molecular target: T3, Voltage-gated N-type calcium channel alpha-1B subunit/Amyloid beta A4 precursor protein-binding family A member 1 (Homo sapiens, UniProt Q00975+Q02410); experiment: disruptors of Mint-PDZ/N-type channel peptide interaction – biochemical, HTRF, set 2, SAR follow-up (AID 434980); type: functional
T3 sequence (Q00975 whole entry): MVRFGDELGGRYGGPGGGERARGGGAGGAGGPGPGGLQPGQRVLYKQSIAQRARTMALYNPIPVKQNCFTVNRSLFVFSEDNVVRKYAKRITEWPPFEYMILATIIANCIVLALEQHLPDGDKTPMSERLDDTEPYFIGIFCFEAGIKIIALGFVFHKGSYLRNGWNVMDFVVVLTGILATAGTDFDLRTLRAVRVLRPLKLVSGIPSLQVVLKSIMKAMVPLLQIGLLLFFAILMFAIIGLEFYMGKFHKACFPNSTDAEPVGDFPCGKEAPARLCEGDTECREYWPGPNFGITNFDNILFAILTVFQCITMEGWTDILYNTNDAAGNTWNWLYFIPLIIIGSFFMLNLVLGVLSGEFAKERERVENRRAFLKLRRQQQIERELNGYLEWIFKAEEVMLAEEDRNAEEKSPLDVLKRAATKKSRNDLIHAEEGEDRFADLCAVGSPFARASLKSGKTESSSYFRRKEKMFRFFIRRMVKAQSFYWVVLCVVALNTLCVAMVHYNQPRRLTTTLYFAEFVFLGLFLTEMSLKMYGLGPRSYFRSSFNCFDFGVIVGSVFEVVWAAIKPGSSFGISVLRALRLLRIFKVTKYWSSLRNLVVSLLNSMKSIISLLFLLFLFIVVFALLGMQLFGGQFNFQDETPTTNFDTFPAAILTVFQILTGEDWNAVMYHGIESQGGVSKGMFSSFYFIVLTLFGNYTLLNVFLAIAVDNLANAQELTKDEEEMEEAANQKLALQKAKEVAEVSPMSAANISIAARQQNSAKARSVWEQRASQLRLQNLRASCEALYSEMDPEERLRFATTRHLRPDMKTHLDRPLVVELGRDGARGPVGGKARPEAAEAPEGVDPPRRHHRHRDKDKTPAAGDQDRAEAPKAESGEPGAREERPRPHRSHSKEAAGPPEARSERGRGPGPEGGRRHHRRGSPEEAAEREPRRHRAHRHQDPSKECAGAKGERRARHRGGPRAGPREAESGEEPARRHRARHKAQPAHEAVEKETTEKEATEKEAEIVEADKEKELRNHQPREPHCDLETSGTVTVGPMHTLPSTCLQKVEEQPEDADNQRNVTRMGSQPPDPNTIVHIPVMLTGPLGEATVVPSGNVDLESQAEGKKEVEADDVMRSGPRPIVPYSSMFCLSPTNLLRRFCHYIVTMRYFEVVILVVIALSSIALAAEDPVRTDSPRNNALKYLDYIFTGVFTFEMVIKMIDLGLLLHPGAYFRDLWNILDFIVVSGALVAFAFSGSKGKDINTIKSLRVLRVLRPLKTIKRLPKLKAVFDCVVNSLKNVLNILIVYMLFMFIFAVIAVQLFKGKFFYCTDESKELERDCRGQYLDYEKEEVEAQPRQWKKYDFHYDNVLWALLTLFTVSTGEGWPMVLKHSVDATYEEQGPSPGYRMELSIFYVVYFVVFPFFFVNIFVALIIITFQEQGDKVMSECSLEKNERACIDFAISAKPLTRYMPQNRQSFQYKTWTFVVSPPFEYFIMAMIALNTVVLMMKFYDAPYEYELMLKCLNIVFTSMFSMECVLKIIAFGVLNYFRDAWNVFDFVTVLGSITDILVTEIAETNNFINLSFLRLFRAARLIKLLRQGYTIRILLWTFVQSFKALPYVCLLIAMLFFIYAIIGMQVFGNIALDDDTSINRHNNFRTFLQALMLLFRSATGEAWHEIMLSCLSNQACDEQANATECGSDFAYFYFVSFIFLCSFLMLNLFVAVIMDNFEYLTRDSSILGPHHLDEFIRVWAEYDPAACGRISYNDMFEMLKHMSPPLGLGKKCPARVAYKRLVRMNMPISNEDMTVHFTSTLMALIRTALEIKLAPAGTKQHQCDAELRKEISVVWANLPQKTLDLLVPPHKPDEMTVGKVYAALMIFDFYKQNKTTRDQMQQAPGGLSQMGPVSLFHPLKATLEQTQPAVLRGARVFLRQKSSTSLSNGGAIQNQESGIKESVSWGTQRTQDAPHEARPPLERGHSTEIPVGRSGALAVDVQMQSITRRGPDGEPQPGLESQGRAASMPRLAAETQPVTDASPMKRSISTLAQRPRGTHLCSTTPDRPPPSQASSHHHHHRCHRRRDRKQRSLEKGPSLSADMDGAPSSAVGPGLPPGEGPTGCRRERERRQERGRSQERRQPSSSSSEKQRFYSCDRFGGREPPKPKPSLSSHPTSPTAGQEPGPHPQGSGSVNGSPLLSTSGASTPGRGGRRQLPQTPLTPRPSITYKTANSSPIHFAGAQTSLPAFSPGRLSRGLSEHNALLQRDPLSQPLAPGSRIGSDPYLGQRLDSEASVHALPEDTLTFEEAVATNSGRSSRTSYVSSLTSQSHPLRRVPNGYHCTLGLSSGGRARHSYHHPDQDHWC
T3 sequence (Q02410 whole entry): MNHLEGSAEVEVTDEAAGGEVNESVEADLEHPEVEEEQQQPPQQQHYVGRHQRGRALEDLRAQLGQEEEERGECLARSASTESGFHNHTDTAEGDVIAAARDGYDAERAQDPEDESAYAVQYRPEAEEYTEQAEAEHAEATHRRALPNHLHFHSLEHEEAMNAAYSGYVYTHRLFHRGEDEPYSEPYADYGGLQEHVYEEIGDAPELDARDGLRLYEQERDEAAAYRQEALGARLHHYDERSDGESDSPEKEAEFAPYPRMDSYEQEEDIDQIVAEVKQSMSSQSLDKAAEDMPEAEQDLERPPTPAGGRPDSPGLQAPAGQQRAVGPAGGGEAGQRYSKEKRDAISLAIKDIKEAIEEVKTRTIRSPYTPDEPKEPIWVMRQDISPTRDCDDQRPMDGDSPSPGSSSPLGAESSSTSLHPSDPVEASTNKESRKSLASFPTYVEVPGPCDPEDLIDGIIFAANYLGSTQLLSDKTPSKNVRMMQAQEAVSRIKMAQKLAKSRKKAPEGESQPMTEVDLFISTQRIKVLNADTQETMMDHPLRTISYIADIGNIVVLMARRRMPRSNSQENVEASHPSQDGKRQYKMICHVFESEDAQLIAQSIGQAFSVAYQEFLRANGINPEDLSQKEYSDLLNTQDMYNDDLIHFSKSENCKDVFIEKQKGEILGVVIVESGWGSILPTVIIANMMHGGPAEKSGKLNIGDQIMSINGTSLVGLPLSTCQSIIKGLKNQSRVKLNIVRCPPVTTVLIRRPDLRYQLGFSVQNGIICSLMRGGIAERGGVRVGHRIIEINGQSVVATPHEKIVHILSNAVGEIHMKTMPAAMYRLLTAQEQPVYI

[20] = molecular target: T3, Voltage-gated N-type calcium channel alpha-1B subunit/Amyloid beta A4 precursor protein-binding family A member 1; experiment: disruptors of Mint-PDZ/N-type channel peptide interaction – biochemical, HTRF, SAR follow-up (AID 2489); type: functional
[21] = STAT3 activation with BCL3 mRNA and toxicity – cell-based, STAT1 reporter, BCL3 qPCR, cytotoxicity, late-stage follow-up, panel member Cytotoxicity (AID 2049)
[22] = molecular target: Signal transducer and activator of transcription 3 (Homo sapiens, UniProt P40763); experiment: STAT3 activation with BCL3 mRNA and toxicity – cell-based, […], BCL3 qPCR, cytotoxicity, late-stage follow-up, panel member STAT3 Activation (AID 2049)
[23] = molecular target: C-C chemokine receptor type 6 (Homo sapiens, UniProt P51684); experiment: antagonism of CCR6 beta-arrestin recruitment – cell-based, luminescent beta-arrestin readout, dose response (AID 504728); type: functional
Sequence of C-C chemokine receptor type 6 (P51684 whole entry): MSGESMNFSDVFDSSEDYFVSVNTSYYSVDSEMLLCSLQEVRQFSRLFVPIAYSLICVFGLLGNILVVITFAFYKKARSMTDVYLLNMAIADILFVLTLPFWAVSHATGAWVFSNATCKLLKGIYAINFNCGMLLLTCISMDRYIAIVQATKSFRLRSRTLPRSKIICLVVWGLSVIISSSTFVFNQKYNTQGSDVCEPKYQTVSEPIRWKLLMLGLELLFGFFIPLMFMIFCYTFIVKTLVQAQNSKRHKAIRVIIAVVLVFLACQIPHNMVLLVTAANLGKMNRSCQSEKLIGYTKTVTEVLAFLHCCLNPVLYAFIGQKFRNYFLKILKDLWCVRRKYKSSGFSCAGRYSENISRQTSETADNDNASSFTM

[24] = molecular target: Beta-galactosidase (Escherichia coli, UniProt Q8VNN2); experiment: detection-enzyme interference by beta-gal modulators – biochemical, E. coli enzyme, set 3, artefact control for CCR6 antagonist project, dose response (AID 504712); type: functional
[25] = test system: SN12K1; experiment: cells; type: functional; details: Homo sapiens
[26] = test system: Vero; experiment: cells; type: functional; details: Chlorocebus sabaeus
[27] = test system: P388/ADR; experiment: cells; type: functional; details: Mus musculus
[28] = test system: P388; experiment: cells; type: functional; details: Mus musculus
[29] = test system: Vero; experiment: cells; type: functional, cell-based; details: Chlorocebus sabaeus
[30] = test system: HeLa; experiment: viability loss in HeLa cells – cell-based, 24 h, cherry-picked samples, cytotoxicity control, dose response (AID 504726); type: functional; details: Homo sapiens;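 note: potency for cytotoxicity as loss of luminescence signal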
[31] = molecular target: Cytochrome P450 2C9 (Homo sapiens, UniProt P11712); details: Potency
[32] = molecular target: T4, Alkaline phosphatase, tissue-nonspecific isozyme (Homo sapiens, UniProt P05186)
T4 sequence (P05186 whole entry): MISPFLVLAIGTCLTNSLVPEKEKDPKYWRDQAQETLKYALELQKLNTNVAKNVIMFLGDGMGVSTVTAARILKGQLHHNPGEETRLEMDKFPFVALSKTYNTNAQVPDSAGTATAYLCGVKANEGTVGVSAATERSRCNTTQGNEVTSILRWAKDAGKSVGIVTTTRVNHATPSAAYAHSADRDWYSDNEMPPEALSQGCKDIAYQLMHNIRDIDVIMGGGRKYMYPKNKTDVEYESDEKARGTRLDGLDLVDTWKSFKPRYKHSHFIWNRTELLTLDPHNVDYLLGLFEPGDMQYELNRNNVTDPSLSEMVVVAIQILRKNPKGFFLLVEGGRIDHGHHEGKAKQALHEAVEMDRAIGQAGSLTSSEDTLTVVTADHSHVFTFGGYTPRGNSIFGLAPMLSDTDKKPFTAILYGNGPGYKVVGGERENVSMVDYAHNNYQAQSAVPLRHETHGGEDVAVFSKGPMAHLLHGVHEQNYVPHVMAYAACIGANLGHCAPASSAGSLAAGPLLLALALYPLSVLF

[33] = molecular target: Bcl-2-like protein 10 (Homo sapiens, UniProt Q9HD36); experiment: Bcl-B/TR3 peptide binding disruption – biochemical, fluorescence polarization, FITC-TR3 peptide, selectivity assay for Bfl-1 inhibitor project, primary screen (AID 748);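 note: fluorescence polarization from a fluorescein-labelled TR3 peptide binding purified Bcl-B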
[34] = molecular target: Scavenger receptor class B member 1 (Mus musculus, UniProt Q61009); experiment: mouse SR-BI DiI-HDL uptake blockers – ldlA[mSR-BI] cells, fluorescence, cherry pick, dose response (AID 493194); type: functional, cell-based;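 note: cellular uptake of fluorescent DiI-labeled HDL measured as cell fluorescence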
[35] = test system: HeLa; experiment: Cytotoxicity counterscreen assay for transcriptional activators of heat shock protein 70 (Hsp70). [Related pubchem assays: 1203, 1252 ]; type: functional; details: Homo sapiens
[36] = test system: BJ; experiment: growth inhibition of engineered Ras-driven BJ cells – cell-based, alamar blue fluorescence, cherrypicked samples, dose response (AID 2631); type: functional; details: Homo sapiens;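 note: confirmatory dose-response assay in RAS-dependent BJ fibroblasts engineered with TERT, LT and ST, with cytotoxicity read by fluorescence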
[37] = loss of viability in HepG2 cells – cell-based, CellTiter-Glo, cherry-picked, cytotoxicity control for Shn3 inhibitor project, dose response (AID 624134); type: functional
[38] = molecular target: X-box-binding protein 1 (Homo sapiens, UniProt P17861); type: functional, Cricetulus griseus;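 note: confirmatory dose-response counter-screen serving a CHOP assay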
[39] = fluconazole-exposed Candida albicans growth modulators – fluorescence, retest, confirmation (AID 2467); type: functional, cell-based
[40] = non-specific 3'UTR reporter inhibition in Clone20-Shn3RL – cell-based, Renilla luciferase, cherry-picked, counter-screen for Shn3 inhibitor project, dose response (AID 624133); type: functional
[41] = NIH-3T3 fibroblast cytotoxicity, dose response, cytotoxicity control, cell-based, fluorescence, Alamar Blue, secondary assay (AID 2327); type: functional;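 note: NIH-3T3 mouse fibroblasts cultured with fluconazole at 8 µg/mL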
[42] = reduction of Shn3 3'UTR-driven luciferase in osteoblasts – cell-based, Clone20 osteoblasts, firefly luciferase, cherry-picked, dose response (AID 624132); type: functional;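 note: firefly luciferase luminescence from reporter carrying the Shn3 3'UTR in osteoblasts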
[43] = molecular target: Cyclin-dependent kinase 5/CDK5 activator 1 (Homo sapiens, UniProt Q00535); experiment: blockade of human CDK5 activity – biochemical, cherry-picked samples, set 2, dose response (AID 504545)
Sequence of Cyclin-dependent kinase 5/CDK5 activator 1 (Q00535 whole entry): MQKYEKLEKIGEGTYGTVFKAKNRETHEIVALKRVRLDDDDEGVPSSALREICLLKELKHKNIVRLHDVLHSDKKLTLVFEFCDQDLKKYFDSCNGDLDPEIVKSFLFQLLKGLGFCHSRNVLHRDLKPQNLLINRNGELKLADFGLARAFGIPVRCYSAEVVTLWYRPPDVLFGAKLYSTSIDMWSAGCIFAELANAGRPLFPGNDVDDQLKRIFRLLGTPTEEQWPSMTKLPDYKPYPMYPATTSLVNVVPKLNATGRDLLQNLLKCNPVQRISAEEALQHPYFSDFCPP
Sequence of Cyclin-dependent kinase 5/CDK5 activator 1 (Q15078 whole entry, further chain): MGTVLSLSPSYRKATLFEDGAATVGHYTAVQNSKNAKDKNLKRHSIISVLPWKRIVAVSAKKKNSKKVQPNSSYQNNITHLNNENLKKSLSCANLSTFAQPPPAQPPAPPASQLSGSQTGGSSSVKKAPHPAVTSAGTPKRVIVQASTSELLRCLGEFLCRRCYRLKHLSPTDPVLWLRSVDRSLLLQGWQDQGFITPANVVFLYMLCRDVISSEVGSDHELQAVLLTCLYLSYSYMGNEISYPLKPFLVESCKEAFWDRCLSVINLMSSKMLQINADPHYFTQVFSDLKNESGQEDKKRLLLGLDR

[44] = test system: Salmon testes DNA; experiment: acridine orange-DNA binding displacement – biochemical, fluorescence polarization, cherry-picked samples, set 2, artefact control for KSHV LANA DNA-binding inhibitor project, dose response (AID 504727); design: species or system Salmonidae
[45] = cells; type: functional

Nc1nc(-c2ccccn2)nc(N)c1Cc1c(F)cccc1Cl
AC50 [1]: 5.84 µM (active) | IC50 [2]: 4.08 µM (active) | EC50 [3]: 5.25 µM (active) | EC50 [4]: 1.18 µM (active) | IC50 [5]: 7.4 µM (active) | IC50 [6]: 6.42 µM (active) | IC50 [7]: 62.2 µM (not active)

O=C(CN(Cc1cccs1)C(=O)c1ccccn1)NC1CCCCC1
EC50 [8]: > 20 µM (inactive)

Cc1nc(SCc2ccccc2)c([N+](=O)[O-])[nH]1
IC50 [9]: > 150 µM (active)

CCN(CC)CCCN=C(S)N1CCN(c2nc(-c3ccc(F)cc3)cs2)CC1
CC50 [10]: 13.3 µM (active) | EC50 [11]: > 120 µM (not active) | EC50 [12]: > 120 µM (not active) | AC50 [13]: 1 µM (active) | EC50 [14]: > 120 µM (not active)

COC(=O)[C@@]1(C#N)[C@@H]2C=CC(C(C)=O)=CN2[C@@H](C(N)=O)[C@@H]1c1ccc(F)cc1
IC50 [15]: 15.1 µM (inactive) | EC50 [16]: 11.4 µM (active) | EC50 [17]: 4.6 µM (active) | IC50 [18]: 18.3 µM (not active)

CC(=O)Oc1cccc(N2C(=O)C3C(C2=O)C2(C)C=CC3(C)O2)c1 (stereo not given)
IC50 [19]: 9.86 µM (active) and 9.63 µM (active) | IC50 [20]: 12 µM (active) and 18.3 µM (active)

COc1cc(NC(=O)c2cc(C3CC3)on2)c(OC)cc1Cl
CC50 [21]: > 55.7 µM (inactive) | EC50 [22]: 0.00219 µM (active)

CCCC/C=C1/CCC(CN(C)C)C1=O (stereo not given)
IC50 [23]: 27.1 µM (inactive) | IC50 [24]: > 66.6 µM (inactive) | GI50 [25]: 0.776 µM (active) | CC50 [26]: > 25 µM (active) | GI50 [27]: 0.155 µM (active) | GI50 [28]: 0.164 µM (active) | IC50 [29]: 21.8 µM (active)

Cn1c(N)c(C(=O)COC(=O)c2ccc(Cl)c(S(=O)(=O)N3CCCC3)c2)c(=O)n(C)c1=O
AC50 [30]: 68.1 µM (active)

COCC#Cc1ccc(C2C(C)CCC3C(=O)N4C(CCC(C)C4c4ccc(C#CCOC)cc4)C(=O)N32)cc1 (stereo not given)
AC50 [31]: 7.94 µM (inconclusive)

CCN(CC)c1ccc(NC(=O)Cn2c(C(C)NC(=O)c3ccc(C)cc3)nc3ccccc32)cc1 (stereo not given)
EC50 [32]: > 100 µM (not active)

COc1cc(CC(=O)OCC(=O)Nc2ncc(Cl)cc2Cl)cc(OC)c1OC
IC50 [33]: 68.3 µM (inactive)

COc1ccc(OC)c(Nc2ccc(Nc3cc(OC)ccc3OC)nn2)c1
AC50 [34]: 19.8 µM (active)

Cc1cc(Cl)n2c(nc3ccccc32)c1C#N
CC50 [35]: > 11 µM (not active) | EC50 [36]: 0.343 µM (inconclusive) | AC50 [37]: > 70 µM (inactive) | Absolute IC50 (XBP1) [38]: 10 µM | EC50 [39]: 0.54 µM (active) | AC50 [40]: 5.72 µM (active) | EC50 [41]: 6.06 µM (inconclusive) | AC50 [42]: 1.85 µM (active)

Fc1ccccc1/C=N/Nc1[nH]cnc2ncnc1-2
AC50 [43]: 17.4 µM (active)

O=c1oc2ccccc2nc1/C=C(\O)c1ccc(Br)cc1
AC50 [44]: 56.9 µM (active) | IC50 [45]: 5 µM (active)
